In USRE50977E1, “Methods for production of platelets from pluripotent stem cells and compositions thereof” (Astellas Institute for Regenerative Medicine, priority 2012, dated 2026):

Experiments:
MKs derived from HA-iPS = assay: Platelet generation under constant shear force in microfluidic device, HA-iPS derived MKs; format: cell-based, human
Procedure: Matured MKs, derived from HA-iPS and MA09 hES lines, were used. Equal numbers of MKs suspended in MK-specific medium were loaded into a microfluidic device in the presence or absence of 20 μM MMP inhibitor GM6001. Constant shear force was applied to the MKs throughout the culture period. MK-medium downstream of MKs was collected at 30 minute intervals for a period of 6 hours. Platelet number and purity (i.e., percentage of total cells that are CD41a^+CD42b^+) in the collected media were measured using flow cytometer.

[1] = system: iPS derived megakaryocytes; assay: Platelet formation in static culture with MMP inhibitors; format: cell-based, human; conditions: for protection of platelets (CD42b shedding) compared with GM6001: comparative study of specific MMP inhibitors
Procedure: The peak of platelet production is determined by measuring platelet content in the culture, for example on a daily basis for several days. It is typically 4-7 days after the beginning of the MLP differentiation culture period, although it may be longer or it may be shifted. To induce MK maturation and platelet formation, freshly collected or thawed MKPs were cultured in MK maturation medium (MK-M) containing […]+TPO, SCF, IL-6 and […] Megakaryocyte Expansion Supplement) and heparin (5 U/ml) in ultralow attachment plates (Corning). 5 μM of Y-27632 was added for the first 3 days of culture, and cells were incubated in 7% CO2 at 39° C. Cell morphology and density were monitored daily and fresh medium was added to maintain 10^6 cells/ml for the first 4 days. The maturation of MKs from MKPs was monitored using flow cytometric analysis of CD41a, CD42b, and CD235a. Once pro-platelet morphology was observed, medium samples were taken daily to determine platelet yield using CD41a/CD42b double staining by flow cytometric analysis. Platelets were collected for 3-5 consecutive days during the peak of production. To extract platelets, large MKs were removed first using low speed centrifugation (50×g for 10 min), and proplatelets and small MKs were removed by further 10 min centrifugation at 300×g. The iPS-platelets in the supernatants were collected using higher g force (1000-2500×g) in the presence of PGE1 (1 μM). The collected iPS-platelet pellets were then subjected to further purification using a BSA gradient centrifugation as described previously (Robert et al., 2012). Briefly, iPS-platelet pellets were re-suspended with 1× CGS buffer. Platelets were applied in the buffer on top of a BSA gradient with BSA concentration of (weight/volume) of 12, 10, 7, 5 and 2%. The sample was centrifuged at 82×g for 15 min with no break, then the platelet-rich fraction was collected. iPS-platelets purified from BSA gradient were stored or transported at room temperature in MK-M for further analyses.

[2] = system: cells undergoing in vitro megakaryopoiesis; assay: iBET151 treatment of MKP Day 6+3 cultures; format: cell-based, human; conditions: for increase of MKP outputs vs untreated controls: 24 hours; for CD14+ myeloid cells: D6+3 to D6+4, control about 12%; for number/formation of CD14+ myeloid cells: 0.1 and 0.25 μM
Procedure: To promote early MK progenitor production, cells were cultured in MK-Specific Progenitor Expansion medium (EXP-M) containing STEMdiff APEL Medium+TPO (25 ng/ml), SCF (25 ng/ml), Flt-3 ligand (25 ng/ml), IL-3 (10 ng/ml), IL-6 (10 ng/ml) and heparin (5 U/ml) for up to 7 days. Non-adherent MK Progenitors (MKPs) were constantly released into the medium and harvested for 4-5 consecutive days in EXP-M. Daily harvests were cryo-preserved in animal protein-free defined cryopreservation CryoStor™ medium. Samples of MKPs were also subjected to flow cytometry for analysis of CD41a, CD42b, CD31, CD34, CD43, CD13, CD235a, and CD14 cell surface expression.
(§1) As also described above in Example 10, we therefore determined whether suppression of c-myc expression would enhance MK lineage differentiation/expansion and simultaneously prohibit myeloid and other lineage differentiation/expansion. MKP Day 6+3 cultures were treated with non-cytotoxic doses of a c-myc inhibitor, iBET151 (0.1 and 0.25 μM) for 24 hours and then harvested for analysis. […] CD14+ myeloid cells were decreased from about 12% in control cultures to less than 5% and 3% in cultures treated with iBET151 at 0.1 and 0.25 μM, respectively.

c-myc gene expression = assay: Q-PCR of MYC in MKPs treated with iBET151; format: cell-based, human; conditions: 0.1 and 0.25 μM
Procedure: as §1

GATA1 gene expression = assay: Q-PCR of GATA1 in MKPs treated with iBET151; format: cell-based, human; conditions: 0.1 and 0.25 μM
Procedure: as §1

[3] = system: human and murine MLL-fusion leukemic cell lines; conditions: induction of early cell cycle arrest and apoptosis; cited from earlier work
[4] = constant shear force, 20 μM added at beginning of culture, vs DMSO

## CNC(=O)[C@H](Cc1c[nH]c2ccccc12)NC(=O)[C@@H](CC(=O)NO)CC(C)C [GM6001]
MKs derived from HA-iPS; [4]
  platelet purity (percentage CD41a+CD42b+): significantly improved
  platelet yield: significantly improved
MKs derived from HA-iPS; shear force culture, FIG. 23
  platelet numbers as a function of time: significantly more platelets were generated
[1]; added in MK culture, control 45%
  CD41b+/CD42b+ platelets: 59%

## COc1ccc(S(=O)(=O)N2Cc3ccccc3C[C@@H]2C(=O)NO)cc1 [MMP8-I, (3R)-(+)-[2-(4-Methoxybenzenesulfonyl)-1,2,3,4-tetrahydroisoquinoline-3-hydroxamate]]
[1]; MK culture
  total number of CD41a+CD42b+ platelets, increase vs control: ~ 46%
[1]
  protection of platelets (CD42b shedding) compared with GM6001: superior shedding protection than GM
[1]; listed as MMP8 inhibitor
  protection of platelets (CD42b shedding) compared with GM6001: more potency than GM6001
[1]; static culture
  CD41a+CD42b+ platelets produced as compared to GM6001: Significantly more
  purity gain over GM6001-treated cultures: approximately 10%
[1]; static culture, added at the peak of platelet production, control 43.7%
  purity of iPS-derived platelets: 65.5%

## COc1cc2c(cc1-c1c(C)noc1C)ncc1[nH]c(=O)n([C@H](C)c3ccccn3)c12 [iBET151]
[2]; 0.1 μM
  increase of MKP outputs vs untreated controls: ≈ 2 fold
  CD14+ myeloid cells: less than 5%
[2]; 0.25 μM
  increase of MKP outputs vs untreated controls: ~4 fold
  CD14+ myeloid cells: < 3%
[2]
  number/formation of CD14+ myeloid cells: inhibited
[2]; listed as i-BET-151
  number/formation of CD14+ myeloid cells: dose-dependent decrease
[2]; high dose
  apoptosis: massive apoptosis
[2]; lower doses, micromolar or submicromolar range
  numbers of MK progenitors: increased numbers of MK progenitors
c-myc gene expression
  c-myc (MYC) mRNA expression: dose-dependent downregulation
c-myc gene expression; listed as i-BET-151
  c-myc (MYC) mRNA expression: dose-dependent inhibition
GATA1 gene expression
  GATA1 mRNA expression: up-regulation
GATA1 gene expression; listed as i-BET-151
  GATA1 mRNA expression: up-regulated
[3]
  efficacy against leukemic cell lines: profound efficacy
